Key:
Test in all cases: relative viability (nuclei count vs DMSO), 5 days (fraction); higher = more cells survive
Cediranib + Luminespib = compound: COc1cc2c(Oc3ccc4[nH]c(C)cc4c3F)ncnc2cc1OCCCN1CCCC1 [Cediranib] + CCNC(=O)c1noc(-c2cc(C(C)C)c(O)cc2O)c1-c1ccc(CN2CCOCC2)cc1 [Luminespib] (partner 0.01 µM)
In short: (§1)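 Cells from lung cancer lines were seeded into 1536-well plates and, one day later, dosed by pin tool. Treatments were either a single drug or a fixed dose of an anchor drug with five library-drug doses (not always all listed) in √10 steps. After 5 days, nuclei were stained in a one-step fixation (final 0.05% Triton X-100, 1% formaldehyde, 1 ug/ml Hoechst) and counted on 4× images, and relative viability is the treated-to-vehicle nuclei ratio, as the median of duplicate plates.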

Cediranib + AZD7762 = compound: COc1cc2c(Oc3ccc4[nH]c(C)cc4c3F)ncnc2cc1OCCCN1CCCC1 [Cediranib] + NC(=O)Nc1cc(-c2cccc(F)c2)sc1C(=O)N[C@H]1CCCNC1 [AZD7762] (partner 0.2 µM)
In short: as §1

Decitabine + Palbociclib = compound: Nc1ncn([C@H]2C[C@H](O)[C@@H](CO)O2)c(=O)n1 [Decitabine] + CC(=O)c1c(C)c2cnc(Nc3ccc(N4CCNCC4)cn3)nc2n(C2CCCC2)c1=O [Palbociclib] (partner 0.5 µM)
In short: as §1

Decitabine + Foretinib = compound: Nc1ncn([C@H]2C[C@H](O)[C@@H](CO)O2)c(=O)n1 [Decitabine] + COc1cc2c(Oc3ccc(NC(=O)C4(C(=O)Nc5ccc(F)cc5)CC4)cc3F)ccnc2cc1OCCCN1CCOCC1 [Foretinib] (partner 0.25 µM)
In short: as §1

HCC-15
relative viability (Cediranib + Luminespib; first compound 0.04 µM): 0.188 | relative viability (Cediranib + Luminespib; first compound 0.4 µM): 0.261 | relative viability (Cediranib + Luminespib; first compound 1.265 µM): 0.225 | relative viability (Cediranib + Luminespib; first compound 4 µM): 0.425 | relative viability (Cediranib + AZD7762; first compound 0.04 µM): 1.39 | relative viability (Cediranib + AZD7762; first compound 0.4 µM): 1.18 | relative viability (Cediranib + AZD7762; first compound 1.265 µM): 1.35 | relative viability (Cediranib + AZD7762; first compound 4 µM): 1.11 | relative viability (Decitabine + Palbociclib; first compound 0.04 µM): 0.776 | relative viability (Decitabine + Palbociclib; first compound 0.1265 µM): 0.591 | relative viability (Decitabine + Palbociclib; first compound 0.4 µM): 0.412 | relative viability (Decitabine + Palbociclib; first compound 1.265 µM): 0.38 | relative viability (Decitabine + Palbociclib; first compound 4 µM): 0.441 | relative viability (Decitabine + Foretinib; first compound 0.04 µM): 0.939 | relative viability (Decitabine + Foretinib; first compound 0.1265 µM): 0.957 | relative viability (Decitabine + Foretinib; first compound 0.4 µM): 0.542 | relative viability (Decitabine + Foretinib; first compound 1.265 µM): 0.56 | relative viability (Decitabine + Foretinib; first compound 4 µM): 0.434

EMC-BAC-2
relative viability (Cediranib + Luminespib; first compound 0.04 µM): 1.15 | relative viability (Cediranib + Luminespib; first compound 0.1265 µM): 1.3 | relative viability (Cediranib + Luminespib; first compound 0.4 µM): 1.13 | relative viability (Cediranib + Luminespib; first compound 1.265 µM): 1.18 | relative viability (Cediranib + Luminespib; first compound 4 µM): 1.16 | relative viability (Cediranib + AZD7762; first compound 0.04 µM): 1.06 | relative viability (Cediranib + AZD7762; first compound 0.1265 µM): 0.952 | relative viability (Cediranib + AZD7762; first compound 0.4 µM): 1.11 | relative viability (Cediranib + AZD7762; first compound 1.265 µM): 1.07 | relative viability (Cediranib + AZD7762; first compound 4 µM): 1.15 | relative viability (Decitabine + Palbociclib; first compound 0.1265 µM): 0.519 | relative viability (Decitabine + Palbociclib; first compound 0.4 µM): 0.523 | relative viability (Decitabine + Palbociclib; first compound 1.265 µM): 0.467 | relative viability (Decitabine + Palbociclib; first compound 4 µM): 0.457 | relative viability (Decitabine + Foretinib; first compound 0.04 µM): 0.936 | relative viability (Decitabine + Foretinib; first compound 0.1265 µM): 0.861 | relative viability (Decitabine + Foretinib; first compound 0.4 µM): 0.762 | relative viability (Decitabine + Foretinib; first compound 1.265 µM): 0.66 | relative viability (Decitabine + Foretinib; first compound 4 µM): 0.588

NCI-H1734
relative viability (Cediranib + Luminespib; first compound 0.04 µM): 0.238 | relative viability (Cediranib + Luminespib; first compound 0.1265 µM): 0.185 | relative viability (Cediranib + Luminespib; first compound 0.4 µM): 0.208 | relative viability (Cediranib + Luminespib; first compound 1.265 µM): 0.208 | relative viability (Cediranib + Luminespib; first compound 4 µM): 0.176 | relative viability (Cediranib + AZD7762; first compound 0.04 µM): 0.679 | relative viability (Cediranib + AZD7762; first compound 0.1265 µM): 0.952 | relative viability (Cediranib + AZD7762; first compound 0.4 µM): 0.446 | relative viability (Cediranib + AZD7762; first compound 1.265 µM): 0.42 | relative viability (Cediranib + AZD7762; first compound 4 µM): 0.629 | relative viability (Decitabine + Palbociclib; first compound 0.04 µM): 0.331 | relative viability (Decitabine + Palbociclib; first compound 0.1265 µM): 0.338 | relative viability (Decitabine + Palbociclib; first compound 0.4 µM): 0.32 | relative viability (Decitabine + Palbociclib; first compound 1.265 µM): 0.284 | relative viability (Decitabine + Palbociclib; first compound 4 µM): 0.236 | relative viability (Decitabine + Foretinib; first compound 0.04 µM): 0.765 | relative viability (Decitabine + Foretinib; first compound 0.1265 µM): 0.685 | relative viability (Decitabine + Foretinib; first compound 0.4 µM): 0.651 | relative viability (Decitabine + Foretinib; first compound 1.265 µM): 0.474 | relative viability (Decitabine + Foretinib; first compound 4 µM): 0.339

NCI-H1395
relative viability (Cediranib + Luminespib; first compound 0.04 µM): 0.787 | relative viability (Cediranib + Luminespib; first compound 0.1265 µM): 0.569 | relative viability (Cediranib + Luminespib; first compound 0.4 µM): 0.734 | relative viability (Cediranib + Luminespib; first compound 1.265 µM): 0.754 | relative viability (Cediranib + Luminespib; first compound 4 µM): 0.535 | relative viability (Cediranib + AZD7762; first compound 0.04 µM): 0.382 | relative viability (Cediranib + AZD7762; first compound 0.1265 µM): 0.404 | relative viability (Cediranib + AZD7762; first compound 0.4 µM): 0.378 | relative viability (Cediranib + AZD7762; first compound 1.265 µM): 0.402 | relative viability (Cediranib + AZD7762; first compound 4 µM): 0.392 | relative viability (Decitabine + Palbociclib; first compound 0.04 µM): 0.583 | relative viability (Decitabine + Palbociclib; first compound 0.1265 µM): 0.606 | relative viability (Decitabine + Palbociclib; first compound 0.4 µM): 0.6 | relative viability (Decitabine + Palbociclib; first compound 1.265 µM): 0.55 | relative viability (Decitabine + Palbociclib; first compound 4 µM): 0.523 | relative viability (Decitabine + Foretinib; first compound 0.04 µM): 0.798 | relative viability (Decitabine + Foretinib; first compound 0.1265 µM): 0.801 | relative viability (Decitabine + Foretinib; first compound 0.4 µM): 0.687 | relative viability (Decitabine + Foretinib; first compound 1.265 µM): 0.586 | relative viability (Decitabine + Foretinib; first compound 4 µM): 0.55

HOP-62
relative viability (Cediranib + Luminespib; first compound 0.04 µM): 1.01 | relative viability (Cediranib + Luminespib; first compound 0.4 µM): 0.79 | relative viability (Cediranib + Luminespib; first compound 1.265 µM): 0.949 | relative viability (Cediranib + Luminespib; first compound 4 µM): 0.94 | relative viability (Cediranib + AZD7762; first compound 0.04 µM): 0.612 | relative viability (Cediranib + AZD7762; first compound 0.1265 µM): 0.397 | relative viability (Cediranib + AZD7762; first compound 0.4 µM): 0.263 | relative viability (Cediranib + AZD7762; first compound 1.265 µM): 0.446 | relative viability (Cediranib + AZD7762; first compound 4 µM): 0.712 | relative viability (Decitabine + Palbociclib; first compound 0.04 µM): 0.326 | relative viability (Decitabine + Palbociclib; first compound 0.1265 µM): 0.327 | relative viability (Decitabine + Palbociclib; first compound 0.4 µM): 0.195 | relative viability (Decitabine + Palbociclib; first compound 1.265 µM): 0.136 | relative viability (Decitabine + Palbociclib; first compound 4 µM): 0.273 | relative viability (Decitabine + Foretinib; first compound 0.04 µM): 0.773 | relative viability (Decitabine + Foretinib; first compound 0.1265 µM): 0.53 | relative viability (Decitabine + Foretinib; first compound 0.4 µM): 0.315 | relative viability (Decitabine + Foretinib; first compound 1.265 µM): 0.197 | relative viability (Decitabine + Foretinib; first compound 4 µM): 0.218

From the supplement of paper PMC10307832
